Values after ≈ are worked out from the molar mass of the structure shown. Where a name gives a salt, the structure may show the parent alone.
What was measured:
CCRF-CEM cell line = test: CCRF-CEM cell growth inhibition; assay type: cell-based; conditions: Homo sapiens, read-out: IC50, concentration inhibiting cell growth of a CCRF-CEM cell line by 50% as compared to control
Method: For N-(N-{5-[2-(2-amino-4-hydroxy-5,6,7,8-tetrahydropyrido[2,3-d]pyrimidin-6-yl)-ethyl]thien-2-ylcarbonyl}-L-γ-glutamyl)-D-aspartic acid, the IC50 is 0.100 μg/mL. For N-(N-{5-[2-(2-amino-4-hydroxy-5,6,7,8-tetrahydropyrido[2,3-d]pyrimidin-6-yl)ethyl]thien-2-ylcarbonyl}-L-γ-glutamyl)-D-glutamic acid 1-tert.-butyl-2,2-diethyl ester, the IC50 is 1.0 μg/mL. For N-{5-[2-(2-amino-4-hydroxy-5,6,7,8-tetrahydropyrido[2,3-d]pyrimidin-6-yl)- ethyl]thien-2-ylcarbonyl}-L-homocysteic acid α-methyl ester, the IC50 is 0.200 μg/mL. […] For 2-{5-[2-(2-amino-4-hydroxy-5,6,7,8-tetrahydropyrido[2,3-d]pyrimidin-6-yl)ethyl]thien-2-ylcarbonylamino}-3-(2H-tetrazol-5-yl)propanoic acid diammonium salt the IC50 is >100 μg/mL.

[1] = biological target: T1, human monofunctional GARFT (Homo sapiens, UniProt P22102); test: Ki against human monofunctional GARFT; assay type: biochemical; conditions: tight-binding analysis per Henderson; read-out: Ki inhibition constant against human monofunctional GARFT
T1 construct: human monofunctional GARFT
T1 sequence (P22102 810-1010 limits assumed): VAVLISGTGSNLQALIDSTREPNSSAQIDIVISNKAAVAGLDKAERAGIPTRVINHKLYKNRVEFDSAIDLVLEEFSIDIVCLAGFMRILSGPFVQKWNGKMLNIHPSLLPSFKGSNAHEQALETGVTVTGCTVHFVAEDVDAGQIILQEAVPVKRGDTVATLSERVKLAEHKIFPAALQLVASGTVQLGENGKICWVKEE

[2] = system: 6C3HED lymphosarcoma tumor; test: 6C3HED lymphosarcoma tumor growth inhibition in C3H female mice; assay type: in vivo; conditions: daily IV bolus injection for 8 days
Method: N-(N-{5-[2-(2-amino-4-hydroxy-5,6,7,8-tetrahydropyrido[2,3 -d]pyrimidin-6-yl)ethyl]thien-2-ylcarbonyl}-L-γ-glutamyl)-D-asparticacid was evaluated against 6C3HED lymphosarcoma tumor in C3H female mice with the compound given daily, IV bolus injection, for 8 days. Compounds were administered in units of mg/kg of body weight. At the end of treatment, tumor weight was estimated using an electronic caliper interfaced to a microcomputer, and average tumor weight was calculated for each dosing level and a control group. Percentage inhibition of tumor growth was calculated as % inhibition of tumor growth according to the expression:
[1-(average tumor weight experimental group/average tumor weight control
Percentage inhibition was not calculated at a particular dosing level if mortality exceeded 20%. Cumulative dose was calculated by multiplying the daily dose by the number of days doses were administered.

Structure (SMILES)	IC50 (CCRF-CEM cell line) [µg/mL]	Ki [1] [nM]	% inhibition of tumor growth ([2]; 100 mg/kg) [%]	% inhibition of tumor growth ([2]; 200 mg/kg) [%]
Nc1nc(O)c2c(n1)NCC(CCc1ccc(C(=O)N[C@@H](CCS(=O)(=O)O)C(=O)O)s1)C2 (stereo partly drawn) [Example 9, N-{5-[2-(2-Amino-4-hydroxy-5,6,7,8-tetrahydropyrido[2.3-d]pyrimidin-6-yl)-ethyl]thien-2-ylcarbonyl}-L-homocysteic Acid]	0.82 (≈ 1.69 µM)	–	–	–
Nc1nc(O)c2c(n1)NCC(CCc1ccc(C(=O)N[C@@H](CCC(=O)N[C@H](CC(=O)O)C(=O)O)C(=O)O)cc1)C2 (stereo partly drawn) [Example 1, N-(N-{4-[2-(2-Amino-4-hydroxy-5,6,7,8-tetrahydropyrido[2,3-d]pyrimidin-6-yl)ethyl]benzoyl}-L-γ-glutamyl)-D-aspartic Acid]	1.6 (≈ 2.86 µM)	–	–	–
Nc1nc(O)c2c(n1)NCC(CCc1ccc(C(=O)N[C@@H](Cc3nn[nH]n3)C(=O)O)cc1)C2 (stereo partly shown) [Example 12, 2-{4-[2-(2-Amino-4-hydroxy-5,6,7,8-tetrahydropyrido[2.3-d]pyrimidin-6-yl)ethyl]benzoylamino}-3-(2H-tetrazol-5-yl)propanoic Acid Diammonium Salt]	28.6	–	–	–
Nc1nc(O)c2c(n1)NCC(CCc1ccc(C(=O)NC(Cc3nn[nH]n3)C(=O)O)s1)C2 (stereo not shown) [Example 13]	> 100	156	–	–
Nc1nc(O)c2c(n1)NCC(CCc1ccc(C(=O)N[C@@H](CCC(=O)N[C@H](CC(=O)O)C(=O)O)C(=O)O)s1)C2 (stereo partly shown) [Example 2]	0.1 (≈ 0.177 µM)	0.244	100	100
CCOC(=O)CC[C@@H](NC(=O)CC[C@H](NC(=O)c1ccc(CCC2CNc3nc(N)nc(O)c3C2)s1)C(=O)OC(C)(C)C)C(=O)OCC (stereo partly drawn) [N-(N-{5-[2-(2-amino-4-hydroxy-5,6,7,8-tetrahydropyrido[2,3-d]pyrimidin-6-yl)ethyl]thien-2-ylcarbonyl}-L-γ-glutamyl)-D-glutamic acid 1-tert.-butyl-2,2-diethyl ester]	1 (≈ 1.45 µM)	7.7	–	–
COC(=O)[C@H](CCS(=O)(=O)O)NC(=O)c1ccc(CCC2CNc3nc(N)nc(O)c3C2)s1 (stereo partly shown) [Example 8]	0.2 (≈ 0.4 µM)	3.5	–	–

Source: patent publication US5786358A, “Pyridopyrimidines as nonclassical antifolates” (The Trustees of Princeton University, priority 1996, dated 1998)
